In ChEMBL document CHEMBL1155652, “Synthesis of the marine sponge cycloheptapeptide phakellistatin 5(1)” (2000):
Where a SMILES comes first, the peptide text is derived from it. [ ]: non-standard residue; d: D form.

Key:
Type in all cases: functional
OVCAR-3 = test: Growth inhibition of human OVCAR-3 cells
DU-145 = test: Growth inhibition of human DU145 cells
NCI-H460 = test: Growth inhibition of human NCI-H460 cells
P388 = test: Growth inhibition of mouse P388 cells
SK-MEL-5 = test: Growth inhibition of human SK-MEL-5 cells
KM-20L2 = test: Growth inhibition of human KM20L2 cells
SF-295 = test: Growth inhibition of human SF295 cells

Measured: GI50

CC[C@H](C)[C@@H]1NC(=O)[C@H](C)NC(=O)[C@H](CCSC)NC(=O)[C@H](C)NC(=O)[C@H](CC(N)=O)NC(=O)[C@H](Cc2ccccc2)NC(=O)[C@@H]2CCCN2C1=O [(S)-ASN-PHAKELLISTATIN 5] (cyclo(AIPFNAM))
> 10 µg/mL: all assays above

CC[C@H](C)[C@@H]1NC(=O)[C@H](C)NC(=O)[C@H](CCSC)NC(=O)[C@H](C)NC(=O)[C@@H](CC(N)=O)NC(=O)[C@H](Cc2ccccc2)NC(=O)[C@@H]2CCCN2C1=O [(R)-ASN-PHAKELLISTATIN 5] (cyclo(AIPF[dN]AM))
> 10 µg/mL: all assays above
